Data taken from US11000511B2, “Chemical compounds as antibiotics” (priority 2017, dated 2021).

Assays:
[1] = target: T1, purified LasB protein from P. aeruginosa (Pseudomonas aeruginosa, UniProt P14756); assay: Fluorometric assay to determine Ki (Assay 1); type: biochemical; details: Ki (μM) Assay 1, purified LasB, substrate Abz-Ala-Gly-Leu-Ala-p-Nitro-Benzyl-Amide 250 μM, Ki calculated from IC50; inhibitor 0.006 to 200 μM
T1 construct: purchased Merck or Charles River Laboratories
Experimental: (§1) Experiments were therefore conducted (1) to measure the potency of inhibition of compounds of the invention against purified Pseudomonas aeruginosa LasB enzyme and also experiments were conducted (2) to measure the ability of compounds of the invention to inhibit LasB-catalysed elastin degradation. The first assay uses a commercial fluorescent synthetic peptide and purified LasB enzyme. The LasB hydrolysis kinetics are measured allowing the determination of the IC50 and Ki of the inhibitors; the second is a more physiological assay using dialysed Pseudomonas aeruginosa supernatant as source of enzyme, plus its natural substrate Elastin. It is an “end point assay” that determines the percentage of LasB inhibition by each compound for one particular time point and inhibitor concentration. Technical details are described below:
This assay uses commercially available substrate (Abz-Ala-Gly-Leu-Ala-p-Nitro-Benzyl-Amide (Ex: 340 nm, Em: 415 nm) from Peptide International) and purified LasB protein from P. aeruginosa (provided by Merck or Charles River Laboratories). It is performed to determine LasB elastase activity and assess compound inhibition in 96-well plate format. Some compounds of Formula (I) were assessed using the method of Assay 1 (described below). Other compounds of Formula (I) were assessed using the alternative but equivalent method of Assay 2 (described below).
Method: 10 to 140 ng/ml purified LasB is incubated with 250 μM Abz-Ala-Gly-Leu-Ala-p-Nitro-Benzyl-Amide in 50 mM Tris-HCl pH 7.4, 2.5 mM CaCl2), 0.01% of Triton X100 at 37° C. LasB activity (corresponding to fluorescence emission induced by substrate hydrolysis) is measured over 30 min at 37° C. with a fluorescence plate reader such as the Perkin Elmer Envision or similar. Different range of inhibitor concentrations are routinely assessed depending of inhibitor potency from 0.006 to 200 μM (Assay 1; 2-fold dilutions series) or from 0.0016 to 200 μM (Assay 2; 2-fold dilutions series) in order to determine IC50.
The equation used to calculate the Ki from IC50 is: Ki=IC50/(1+([S]/Km)) where [S]=250 μM and Km=214 μM.

[2] = target: T2, LasB elastase activity in dialysed supernatant from P. aeruginosa strain PA01 (Pseudomonas aeruginosa, UniProt P14756); assay: Elastin Congo Red assay to determine % inhibition (Assay 1); type: biochemical; details: read-out: Elastin hydrolysis % inhibition @ 50/25 μM inhibitor concentration Assay 1
T2 construct: uses as source of enzyme dialysed supernatant from P. aeruginosa; endogenous in cells; host or cells: P. aeruginosa strain PA01 culture supernatant, filtered and dialysed
Experimental: as §1
The Elastin assay uses as source of enzyme dialysed supernatant from P. aeruginosa and the elastin congo red as substrate. The natural LasB substrate, elastin, is complexed with the congo red dye (Elastin Congo Red, ECR). The elastolysis activity from the culture supernatant will degrade elastin and release the congo red dye into the supernatant. This red dye release can be measured with a spectrophotometer. Some compounds of Formula (I) were assessed using the method of Assay 1 (described below). Other compounds of Formula (I) were assessed using the alternative but equivalent method of Assay 2 (described below).
Method (Assay 1): To determine LasB elastase activity and assess compound inhibition, an overnight culture of P. aeruginosa strain PA01 is diluted thousand-fold in LB medium. This diluted solution is incubated during 19 hours in a shaking incubator. Culture supernatants are recovered by centrifugation and filtrated through a […] filter. These supernatants are dialysed (filtration molecules <20 kDa) into a 50 mM Tris pH 7.4, 2.5 mM CaCl2 solution at 4° C. under agitation for 24 hours. Supernatant dialysed is then mixed volume/volume with the ECR suspension (20 mg/mL of ECR in 100 mM Tris buffer supplemented with 1 mM CaCl2) supplemented with TritonX 100 (final concentration of 0.01%) in presence of different concentrations of compound (routinely 50 and 25 μM). The mixed reaction is then incubated for 24 hours in a 37° shaking incubator. As a negative control, the mixed supernatant is replaced by Tris solution (50 mM Tris pH 7.4, 2.5 mM CaCl2). The reaction supernatant is recovered by centrifugation and the release of congo red is measured by its absorbance at OD520. Percentage inhibition is determined using the following equation: (OD520 value of DMSO SN−OD520 value of LB)−(OD520 value of Compound SN−OD520 value of LB)/(OD520 value of DMSO SN−OD520 value of LB)×100.

T2 sequence (P14756 198-498): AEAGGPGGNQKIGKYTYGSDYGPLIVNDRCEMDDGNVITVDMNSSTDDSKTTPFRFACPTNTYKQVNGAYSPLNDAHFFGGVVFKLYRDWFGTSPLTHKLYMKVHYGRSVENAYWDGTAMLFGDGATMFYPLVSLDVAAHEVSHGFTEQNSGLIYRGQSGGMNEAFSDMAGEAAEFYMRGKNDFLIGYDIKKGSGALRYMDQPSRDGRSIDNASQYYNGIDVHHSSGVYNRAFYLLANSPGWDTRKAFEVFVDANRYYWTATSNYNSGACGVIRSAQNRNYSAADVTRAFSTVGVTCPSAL
T1 sequence (P14756 198-498): as above

Compound	Ki [1] [µM]	inhibition at 50 µM [2] [%]
O=C(O)CC1(C(=O)NCCc2cc3ccccc3[nH]2)Cc2ccccc2C1 [Example 27, 2-[2-[2-(1H-indol-2-yl)ethylcarbamoyl]indan-2-yl]acetic acid]	2 to 10	15 to 30
O=C(O)CC1(C(=O)NCCc2ccc(O)cc2)Cc2ccccc2C1 [Example 13, 2-[2-[2-(4-hydroxyphenyl)ethylcarbamoyl]indan-2-yl]acetic acid]	2 to 10	30 to 60
CN1CCN(c2ccc3sc(CNC(=O)C4(CC(=O)O)Cc5ccccc5C4)nc3c2)CC1 [Example 106, 2-[2-[[5-(4-methylpiperazin-1-yl)-1,3-benzothiazol-2-yl]methylcarbamoyl]indan-2-yl]acetic acid]	< 0.3	> 60
C[N+](C)(C)CCCc1ccc2sc(CNC(=O)C3(CC(=O)[O-])Cc4ccccc4C3)nc2c1 [Example 90, 2-[2-[[5-[3-(trimethylammonio)propyl]-1,3-benzothiazol-2-yl]methylcarbamoyl]indan-2-yl]acetate]	0.3 to 2	> 60
C[N+](C)(C)C1CN(c2ccc3nc(CNC(=O)C4(CC(=O)[O-])Cc5ccccc5C4)sc3c2)C1 [Example 68, 2-[2-[[6-[3-(trimethylammonio)azetidin-1-yl]-1,3-benzothiazol-2-yl]methylcarbamoyl]indan-2-yl]acetate]	0.3 to 2	30 to 60
NC1CN(c2ccc3nc(CNC(=O)C4(CC(=O)O)Cc5ccccc5C4)sc3c2)C1 [Example 100, 2-[2-[[6-(3-aminoazetidin-1-yl)-1,3-benzothiazol-2-yl]methylcarbamoyl]indan-2-yl]acetic acid]	< 0.3	> 60
O=C(O)CC1(C(=O)NCc2coc3ccccc23)Cc2ccccc2C1 [Example 57, 2-[2-(benzofuran-3-ylmethylcarbamoyl)indan-2-yl]acetic acid]	0.3 to 2	30 to 60
Cc1oc2ccccc2c1CNC(=O)C1(CC(=O)O)Cc2ccccc2C1 [Example 20, 2-[2-[(2-methylbenzofuran-3-yl)methylcarbamoyl]indan-2-yl]acetic acid]	2 to 10	30 to 60
C[N+]1(C)CCC(OC(=O)[C@H](Cc2c[nH]c3ccccc23)NC(=O)C2(CC(=O)O)Cc3ccccc3C2)CC1 [Example 116, (S)-2-(2-((1-((1,1-dimethylpiperidin-1-ium-4-yl)oxy)-3-(1H-indol-3-yl)-1-oxopropan-2-yl)carbamoyl)-2,3-dihydro-1H-inden-2-yl)acetate]	0.3 to 2	> 60
CN(C)C1CN(c2ccc3sc(CNC(=O)C4(CC(=O)O)Cc5ccccc5C4)nc3c2)C1 [Example 74, 2-[2-[[5-[3-(dimethylamino)azetidin-1-yl]-1,3-benzothiazol-2-yl]methylcarbamoyl]indan-2-yl]acetic acid]	< 0.3	> 60
CN1CCN(c2ccc3nc(CNC(=O)C4(CC(=O)O)Cc5ccccc5C4)sc3c2)CC1 [Example 42, 2-[2-[[6-(4-methylpiperazin-1-yl)-1,3-benzothiazol-2-yl]methylcarbamoyl]indan-2-yl]acetic acid]	0.3 to 2	> 60
NC1CN(c2ccc3sc(CNC(=O)C4(CC(=O)O)Cc5ccccc5C4)nc3c2)C1 [Example 73, 2-[2-[[5-(3-aminoazetidin-1-yl)-1,3-benzothiazol-2-yl]methylcarbamoyl]indan-2-yl]acetic acid]	< 0.3	> 60
O=C(O)CC1(C(=O)NCCc2nc3ccccc3[nH]2)Cc2ccccc2C1 [Example 12, 2-[2-[2-(1H-benzimidazol-2-yl)ethylcarbamoyl]indan-2-yl]acetic acid]	2 to 10	15 to 30
O=C(O)CC1(C(=O)NCc2c[nH]c3ccccc23)Cc2ccccc2C1 [Example 26, 2-[2-(1H-indol-3-ylmethylcarbamoyl)indan-2-yl]acetic acid]	2 to 10	30 to 60
